Experimental data from US6020521A, “Macrolide LHRH antagonists” (Abbott Laboratories, priority 1998, dated 2000).

Molecular target: T1, LHRH rat pituitary receptor (Rattus norvegicus, UniProt P30969)
T1 construct: from tissue; host or cells: rat pituitary
T1 sequence (P30969 1-327): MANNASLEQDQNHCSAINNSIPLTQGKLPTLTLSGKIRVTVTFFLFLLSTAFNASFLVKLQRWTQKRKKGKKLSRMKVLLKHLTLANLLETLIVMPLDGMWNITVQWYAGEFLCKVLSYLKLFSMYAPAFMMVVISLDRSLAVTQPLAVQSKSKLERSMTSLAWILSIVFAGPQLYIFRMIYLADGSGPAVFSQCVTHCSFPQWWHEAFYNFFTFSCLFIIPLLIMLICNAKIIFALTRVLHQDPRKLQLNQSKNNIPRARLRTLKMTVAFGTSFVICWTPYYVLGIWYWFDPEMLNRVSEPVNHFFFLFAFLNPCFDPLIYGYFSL
Assay: LHRH rat pituitary receptor binding (pKI)
Conditions: receptor binding affinity, negative logarithm of the equilibrium dissociation constants
Procedure: Representative compounds of the present invention were evaluated in in vitro tests for LHRH rat pituitary receptor binding (pKI) and for LH inhibition from rat pituitary cells for antagonist potency (pA2). The tests employed the methods detailed in F. Haviv, et al. J. Med. Chem., 32: 2340-2344 (1989). The receptor binding affinity (pKI) is the negative logarithm of the equilibrium dissociation constants.

Row | SMILES | Ki | p KI
1 | CC[C@H]1OC(=O)[C@H](C)[C@@H](OC(=O)N2C[C@@H](C)OC2=O)[C@H](C)[C@@H](O[C@@H]2O[C@H](C)C[C@H](N(C)CC3CC3)[C@H]2O)[C@](C)(OC)C[C@@H](C)C(=O)[C@H](C)[C@H]2N(CCc3ccc(Cl)c(Cl)c3)C(=O)O[C@]12C [Example 39, 11-Deoxy-11-[carboxy(3,4-dichlorophenethyl)amino]-3-O-[5-(R)-methyl-oxazolidin-2-one]carbamoyl-5-O-(3'-N-desmethyl-3'-N-cyclopropylmethyl)desosaminyl-6-O-methyl-erythronolide A 11,12-(cyclic carbamate)] | 2.82 nM | 
2 | CCC1OC(=O)C(C)C(OC(=O)C2CCOC2)C(C)C(OC2OC(C)CC(NC(C)C)C2O)C(C)(OC)CC(C)C(=O)C(C)C2N(CCc3ccc(Cl)cc3)C(=O)OC12C (stereo not drawn) [Example 10, 11-Deoxy-11-[carboxy(4-chlorophenethyl)amino]-5-O-(3'-bis-N-desmethyl-3'-N-isopropyl)desosaminyl-3-O-(tetrahydro-3-furoyl)-6-O-methyl-erythronolide A 11,12-(cyclic carbamate)] |  | 8.09
3 | CC[C@H]1OC(=O)[C@H](C)[C@@H](OC(=O)N2C(=O)OC[C@@H]2C)[C@H](C)[C@@H](O[C@@H]2O[C@H](C)C[C@H](N(C)C3CCC3)[C@H]2O)[C@](C)(OC)C[C@@H](C)C(=O)[C@H](C)[C@H]2N(CCc3ccc(F)cc3)C(=O)O[C@]12C [Example 29, 11-Deoxy-11-[carboxy(4-fluorophenethyl)amino]-3-O-[4-(S)-methyl-oxazolidin-2-one]carbamoyl-5-O-(3'-N-desmethyl-3'-N-cyclobutyl)desosaminyl-6-O-methyl-erythronolide A 11,12-(cyclic carbamate)] | 0.105 nM | 
4 | CCCN(C)[C@H]1C[C@@H](C)O[C@@H](O[C@@H]2[C@@H](C)[C@H](OC(=O)N3C(=O)OC[C@@H]3C)[C@@H](C)C(=O)O[C@H](CC)[C@@]3(C)OC(=O)N(CCc4ccc(Cl)cc4)[C@@H]3[C@@H](C)C(=O)[C@H](C)C[C@@]2(C)OC)[C@@H]1O [Example 27, 11-Deoxy-11-carboxy(4-chlorophenethyl)amino]-3-O-[4-(S)-methyl-oxazolidin-2-one]carbamoyl-5-O-(3'-N-desmethyl-3'-N-n-propyl)desosaminyl-6-O-methyl-erythronolide A 11,12-(cyclic carbamate)] |  | 9.60
5 | CC[C@H]1OC(=O)[C@H](C)[C@@H](OC(=O)N2C(=O)OC[C@@H]2C)[C@H](C)[C@@H](O[C@@H]2O[C@H](C)C[C@H](N(C)C3CCCCC3)[C@H]2O)[C@](C)(OC)C[C@@H](C)C(=O)[C@H](C)[C@H]2N(CCc3ccc(Cl)cc3)C(=O)O[C@]12C [Example 26, 11-Deoxy-11-[carboxy(4-chlorophenethyl)amino]-3-O-[4-(S)-methyl-oxazolidin-2-one]carbamoyl-5-O-(3'-N-desmethyl-3'-N-cyclohexyl)desosaminyl-6-O-methyl-erythronolide A 11,12-(cyclic carbamate)] | 0.166 nM | 
6 | CC[C@H]1OC(=O)[C@H](C)[C@@H](OC(=O)N2C(=O)OC[C@@H]2C)[C@H](C)[C@@H](O[C@@H]2O[C@H](C)C[C@H](NC(C)C)[C@H]2O)[C@](C)(OC)C[C@@H](C)C(=O)[C@H](C)[C@H]2N(CCc3ccc(Cl)cc3)C(=O)O[C@]12C [Example 7, 11-Deoxy-11-[carboxy(4-chlorophenethyl)amino]-5-O-(3'-bis-N-desmethyl-3'-N-isopropyl)desosaminyl-3-O-[4-(S)-methyl-oxazolidin-2-one]carbamoyl-6-O-methyl-erythronolide A 11,12-(cyclic carbamate)] | 3.55 nM | 
7 | CC[C@H]1OC(=O)[C@H](C)[C@@H](OC(=O)N2C(=O)OC[C@@H]2C)[C@H](C)[C@@H](O[C@@H]2O[C@H](C)C[C@H](N(C)C3CCC3)[C@H]2O)[C@](C)(OC)C[C@@H](C)C(=O)[C@H](C)[C@H]2N(CCc3ccc(Cl)cc3)C(=O)O[C@]12C [Example 24, 11-Deoxy-11-[carboxy(4-chlorophenethyl)amino]-3-O-[4-(S)-methyl-oxazolidin-2-one]carbamoyl-5-O-(3'-N-desmethyl-3'-N-cyclobutyl)desosaminyl-6-O-methyl-erythronolide A 11,12-(cyclic carbamate)] | 0.251 nM | 
8 | CC[C@H]1OC(=O)[C@H](C)[C@@H](OC(=O)N2C(=O)OC[C@@H]2C)[C@H](C)[C@@H](O[C@@H]2O[C@H](C)C[C@H](N(C)CC3CC3)[C@H]2O)[C@](C)(OC)C[C@@H](C)C(=O)[C@H](C)[C@H]2N(CCc3ccc(Cl)cc3)C(=O)O[C@]12C [Example 23, 11-Deoxy-11-[carboxy(4-chlorophenethyl)amino]-3-O-[4-(S)-methyl-oxazolidin-2-one]carbamoyl-5-O-(3'-N-desmethyl-3'-N-cyclopropylmethyl)desosaminyl-6-O-methyl-erythronolide A 11,12-(cyclic carbamate)] | 1.45 nM | 
9 | CC[C@H]1OC(=O)[C@H](C)[C@@H](OC(=O)C2CCOC2)[C@H](C)[C@@H](O[C@@H]2O[C@H](C)C[C@H](N(C)C(C)C)[C@H]2O)[C@](C)(OC)C[C@@H](C)C(=O)[C@H](C)[C@H]2N(CCc3ccc(Cl)cc3)C(=O)O[C@]12C (stereo partly drawn) [Example 9, 11-Deoxy-11-[carboxy(4-chlorophenethyl)amino]-5-O-(3'-N-desmethyl-3'-N-isopropyl)desosaminyl-3-O-(tetrahydro-3-furoyl)-6-O-methyl-erythronolide A 11 12-(cyclic carbamate)] |  | 7.85

More lines, now with the values ahead:

Row | Ki | p KI | SMILES
10 | 5.37 nM |  | CC[C@H]1OC(=O)[C@H](C)[C@@H](OC(=O)N2C(=O)OC[C@H]2C)[C@H](C)[C@@H](O[C@@H]2O[C@H](C)C[C@H](N(C)CC3CC3)[C@H]2O)[C@](C)(OC)C[C@@H](C)C(=O)[C@H](C)[C@H]2N(CCc3ccc(Cl)c(Cl)c3)C(=O)O[C@]12C [Example 37, 11-Deoxy-11-[carboxy(3,4-dichlorophenethyl)amino]-3-O-[4-(R)-methyl-oxazolidin-2-one]carbamoyl-5-O-(3'-N-desmethyl-3'-N-cyclopropylmethyl)desosaminyl-6-O-methyl-erythronolide A 11,12-(cyclic carbamate)]
11 | 0.661 nM |  | CC[C@H]1OC(=O)[C@H](C)[C@@H](OC(=O)N2C(=O)OC[C@@H]2C)[C@H](C)[C@@H](O[C@@H]2O[C@H](C)C[C@H](N(CC3CC3)CC3CC3)[C@H]2O)[C@](C)(OC)C[C@@H](C)C(=O)[C@H](C)[C@H]2N(CCc3ccc(Cl)c(Cl)c3)C(=O)O[C@]12C [Example 42, 11-Deoxy-11-[carboxy(3,4-dichlorophenethyl)amino]-3-O-[4-(S)-methyl-oxazolidin-2-one]carbamoyl-5-O-(3'-bis-N-desmethyl-3'-bis-N-cyclopropylmethyl)desosaminyl-6-O-methyl-erythronolide A 11,12-(cyclic carbamate)]
12 | 0.933 nM |  | CC[C@H]1OC(=O)[C@H](C)[C@@H](OC(=O)N2C(=O)OC[C@@H]2C)[C@H](C)[C@@H](O[C@@H]2O[C@H](C)C[C@H](N(C)CC3CCC3)[C@H]2O)[C@](C)(OC)C[C@@H](C)C(=O)[C@H](C)[C@H]2N(CCc3ccc(Cl)c(Cl)c3)C(=O)O[C@]12C [Example 18, 11-Deoxy-11-[carboxy(3,4-dichlorophenethyl)amino]-3-O-[4-(S)-methyl-oxazolidin-2-one]carbamoyl-5-O-(3'-N-desmethyl-3'-N-cyclobutylmethyl)desosaminyl-6-O-methyl-erythronolide A 11,12-(cyclic carbamate)]
13 | 0.562 nM |  | CC[C@H]1OC(=O)[C@H](C)[C@@H](OC(=O)N2C(=O)OC[C@@H]2C)[C@H](C)[C@@H](O[C@@H]2O[C@H](C)C[C@H](N(C)CC(C)C)[C@H]2O)[C@](C)(OC)C[C@@H](C)C(=O)[C@H](C)[C@H]2N(CCc3ccc(Cl)c(Cl)c3)C(=O)O[C@]12C [Example 17, 11-Deoxy-11-[carboxy(3,4-dichlorophenethyl)amino]-3-O-[4-(S)-methyl-oxazolidin-2-one]carbamoyl-5-O-(3'-N-desmethyl-3'-N-isobutyl)desosaminyl-6-O-methyl-erythronolide A 11,12-(cyclic carbamate)]
14 | 0.0741 nM |  | CC[C@H]1OC(=O)[C@H](C)[C@@H](OC(=O)N2C(=O)OC[C@@H]2C)[C@H](C)[C@@H](O[C@@H]2O[C@H](C)C[C@H](N(CC3CC3)C(C)C)[C@H]2O)[C@](C)(OC)C[C@@H](C)C(=O)[C@H](C)[C@H]2N(CCc3ccc(Cl)c(Cl)c3)C(=O)O[C@]12C [Example 22, 11-Deoxy-11-[carboxy(3,4-dichlorophenethyl)amino]-3-O-[4-(S)-methyl-oxazolidin-2-one]carbamoyl-5-O-(3'-bis-N-desmethyl-3'-N-cyclopropylmethyl-3'-N-isopropyl)desosaminyl-6-O-methyl-erythronolide A 11,12-(cyclic carbamate)]
15 | 6.76 nM |  | CC[C@H]1COC(=O)N1C(=O)O[C@H]1[C@H](C)[C@@H](O[C@@H]2O[C@H](C)C[C@H](N(C)CC3CC3)[C@H]2O)[C@](C)(OC)C[C@@H](C)C(=O)[C@H](C)[C@H]2N(CCc3ccc(Cl)c(Cl)c3)C(=O)O[C@]2(C)[C@@H](CC)OC(=O)[C@@H]1C [Example 38, 11-Deoxy-11-[carboxy(3,4-dichlorophenethyl)amino]-3-O-[4-(S)-ethyl-oxazolidin-2-one]carbamoyl-5-O-(3'-N-desmethyl-3'-N-cyclopropylmethyl)desosaminyl-6-O-methyl-erythronolide A 11,12-(cyclic carbamate)]
